The text below walks through data of PMC11239005, “Preclinical studies of RA475, a guanidine-substituted spirocyclic candidate RPN13/ADRM1 inhibitor for treatment of ovarian cancer” (PLOS ONE, 2024).

SMILES strings stand for the structures. Like-named read-outs stand apart in the source and are kept apart here. Some results are limits rather than exact numbers.

One series relates to PEO4. Nature of the series: MTT cytotoxicity assay, PEO4. As to conditions: Homo sapiens, PEO4, 72 h. In kind it is cell-based. The method, then:
(§1) All cell lines were obtained from the American Type Culture Collection (ATCC) and cultured in the specified medium supplemented with 10% fetal bovine serum, 100 IU/mL penicillin, and 100 μg/mL streptomycin at 37°C in a humidified 5% CO2/95% air incubator. Synthesis of new compounds is described in S1 File, and >95% purity of RA475, Up284 and its analogs were confirmed by NMR and MS. To assess drug cytotoxicity, cells were seeded at 2,500 cells/well (10,000 cells/well for MM lines) in 100 μL medium in 96-well plate as triplicates and after 24 h treated with compounds for a further 72 h. To assess cytotoxicity, the cells were incubated for 2 h at 37°C according to the manufacturer’s protocol with the Thiazolyl Blue Tetrazolium Bromide (20 μL/well of 5 mg/mL stock solution in water) (Sigma, M5655) and A570 measured using a Benchmark Plus microplate spectrophotometer (BIO-RAD). IC50 was estimated using Graphpad Prism 7 software.
We elected to focus on RA475 and expanded the analysis in a larger panel of cell lines including those from common cancer types and normal tissues. […] This panel included another pair of cell lines isolated from another ovarian cancer patient with drug-resistant disease (PEO4) and pre-treatment (PEO1), and both were similarly sensitive to RA475.
Background: Formazan colour is commonly taken as a measure of viable cells.

The next series deals with 4UbFL in ES2 cells. Briefly: 4UbFL reporter assay, ES2. In kind it is cell-based, human. As to conditions: 4 h; for 4UbFL stabilization, fold over DMSO: ES2, 1.25 μM; for 4UbFL bioluminescence, luminometer: ES2 stably expressing 4UbFL. The method, then:
Sub-confluent cultures of cells were transfected with 4UbFL plasmid using TransIT 2020 reagent (Mirus Bio). Cells were seeded at 10,000 cells/well in 96-well plates 48 h post transfection, and incubated with compounds or vehicle (DMSO) at the doses and for the times indicated. Luciferase activity in cell lysate was determined with a luciferase assay kit (Promega) according to the manufacturer’s instructions. Bioluminescence was measured using a Glomax Multidetection system (Promega).
Fig 3 Impact of RA475 on proteasome function. […] Actin was used as loading control. […] C) 4T1 and HCC1806 cells stably expressing 4UbFL were treated with compounds at indicated doses for 4 h and imaged by IVIS200 after the addition of luciferin substrate (50 μL, 7mg/mL in PBS). D) Sub-confluent cultures of ES2 cells stably expressing 4UbFL were seeded at 10,000 cells/well in 96-well microtiter plates. At 18 h post transfection, cells were treated with compounds or vehicle (DMSO) at the doses indicated. After a 4 h incubation, the cells were lysed and the luciferase activity in each cell lysate was determined with a luciferase assay kit (Promega) according to the manufacturer’s instructions. Bioluminescence was measured by using a luminometer (Glomax Multidetection system, Promega) E) A patch was shaved of hair on one leg of CD-1 mice, and 10 μg 4UbFL plasmid in 20 μL of PBS was injected into the quadriceps femoralis muscle followed immediately by injection of the 2 Needle Array to 5 mm depth encompassing the injection site and square wave electroporation (ElectroSquarePorator 833, BTX-2 Needle array 5mm gap, Harvard apparatus) delivered as eight pulses at 106V for 20 ms with 200 ms intervals. One day post electroporation, mice were anesthetized with isoflurane, injected IP with luciferin (0.3 mg in 100 μL water) and optical imaging was performed to determine basal level luciferase expression. Images were acquired for 10 min with a Xenogen IVIS 200 (Caliper, Hopkinton, MA). Equally sized areas were analyzed using Living Image 2.20 software. Mice were imaged weekly during treatment. Mice were randomized into three groups (n = 5) and treated IP once with Vehicle (25% (w/v) β-Hydroxypropylcyclodextrin in water, Sigma Aldrich) alone, RA475 (40 mg/Kg) or Up284 (40 mg/Kg) and mice were imaged again at 4 h, 24 h, 48 h, 72 h and 96 h later. F) Same as in E but RA475 (40mg/Kg) and ixazomib (10mg/Kg, recommended dose) were delivered orally. Thick line indicates median measurements. P-values are results based on Wilcoxon rank sum test for pairwise comparisons to vehicle cohort at each time point with multiplicity adjustment.
Firefly Luciferase (FL) is a stable protein in cells, but when fused with four molecules of ubiquitin (4Ub) it is targeted for rapid degradation by proteasomes. […]
For orientation: A reporter such as luciferase makes a cellular process visible.

The test system of the next series is HeLa. Briefly: MTT cytotoxicity assay, HeLa. In kind it is cell-based. As to conditions: Homo sapiens, 72 h. Here is the method:
as §1

In a further series the test system is TSH1. Nature of the series: MTT cytotoxicity assay, TSH1. As to conditions: TSH1, 72 h. In kind it is cell-based. Here is the method: as §1
The next series concerns HFF. Briefly: MTT cytotoxicity assay, HFF. As to conditions: Homo sapiens, HFF (normal cells), 72 h. In kind it is cell-based. The method, then: as §1
The next series concerns DLD1. Nature of the series: MTT cytotoxicity assay, DLD1. In kind it is cell-based. As to conditions: Homo sapiens, DLD-1, DLD1, 72 h. The method, then: as §1
In the next series the test system is MC38. Nature of the series: MTT cytotoxicity assay, MC38. In kind it is cell-based. As to conditions: Mus musculus, MC-38, MC38, 72 h. The method, then:
as §1

For the next series, the system named is MDA-MB-468. Briefly: MTT cytotoxicity assay, MDA-MB-468. In kind it is cell-based. As to conditions: Homo sapiens, MDA-MB-468, 72 h. The method, then: as §1
Another series concerns SKMEL2. Nature of the series: MTT cytotoxicity assay, SKMEL2. In kind it is cell-based. As to conditions: Homo sapiens. Here is the method: as §1
The next series deals with HepG2. Briefly: MTT cytotoxicity assay, HepG2. In kind it is cell-based. As to conditions: Homo sapiens, HepG2, 72 h. The method, then: as §1
For the next series, the system named is TC1. Briefly: MTT cytotoxicity assay, TC1. In kind it is cell-based. As to conditions: TC-1, TC1, 72 h. Here is the method:
as §1

The subject of another series is OVCAR3 cells. Nature of the series: MTT cytotoxicity assay, OVCAR3. As to conditions: for IC50: Homo sapiens, OVCAR-3, OVCAR3, 72 h. In kind it is cell-based, human. Here is the method: as §1
To study the effect of RA475 in combination with approved therapeutics (DNA damaging agents or radiation) an MTT assay was performed using various concentrations of both drugs. Briefly PEA1 and OVCAR3 cells were each treated with drug combination (RA475 plus cisplatin) for 72 h in a checker board analysis and cell viability was measured using MTT assay. The data were analyzed and plotted using the Synergy Finder web application.

Take `N#Cc1ccc(/C=C2/C(=O)/C(=C/c3ccc(C#N)cc3)C23CCNCC3)cc1` [Up284, reference compound]: the IC50 in the series with PEO4 is 61 nM; in the series on HeLa, 40 nM; with TSH1 it was 70 nM; in the series with HFF it was > 2500 nM; in the series with DLD1, 110 nM; in the series with MC38 it was 60 nM. The IC50 is 72 nM in the series with MDA-MB-468; 70 nM in the series on SKMEL2 (SK-MEL-2, SKMEL2, 72 h, MTT, read-out: IC50); 90 nM in the series with HepG2; 140 nM in the series on TC1; 50 nM in the series on OVCAR3 cells. In the series with 4UbFL in ES2 cells, the “4UbFL stabilization, fold over DMSO” value is recorded as > 20 fold. Also, in the series on 4UbFL in ES2 cells, the “4UbFL bioluminescence, luminometer” value is on record as “dose-dependent increase in bioluminescence”.

`Cl.Cl.N#Cc1ccc(/C=C2/C(=O)/C(=C/c3ccc(C#N)cc3)C23CCN(C(=N)N)CC3)cc1` [RA475, 1,3-bis((E)-4-cyanobenzylidene)-2-oxo-7-azaspiro[3.5]nonane-7-carboximidamide dihydrochloride]: the IC50 in the series on PEO4 is 260 nM; in the series on HeLa it was 213 nM; in the series on TSH1 it was 114 nM; in the series on HFF, > 2500 nM; in the series with DLD1, 495 nM; in the series on MC38 it was 446 nM. Further, the IC50 is 292 nM in the series on MDA-MB-468; 156 nM in the series with SKMEL2 (SK-MEL-2, 72 h); 241 nM with HepG2; 217 nM in the series with TC1; 190 nM with OVCAR3 cells. Also, the “4UbFL stabilization, fold over DMSO” value in the series on 4UbFL in ES2 cells is reported as > 20 fold. Moreover, in the series with 4UbFL in ES2 cells, the “4UbFL bioluminescence, luminometer” value is “dose-dependent increase in bioluminescence”. Also, in the series on OVCAR3 cells (OVCAR3, checker board, 72 h, Synergy Finder), the “synergy with cisplatin for cytotoxicity” value is reported as “mild synergy”.

By IC50 is commonly meant the point on the concentration scale where inhibition reaches its midpoint.
